“Also recorded” adds a separate entry of the source. Read-outs that look alike come from different tables or passages of the source.
Tests used:
[1] = tested on: KB (oral epidermoid carcinoma cell line); set-up: method as in Trieu et al., 2014; details: ref Trieu et al., 2014; cited from earlier work
HepG2 (liver cancer) = tested on: HepG2 (liver cancer); set-up: method as in Trieu et al., 2014; details: ref Trieu et al., 2014; cited from earlier work
MCF7 (breast carcinoma) = tested on: MCF7 (breast carcinoma); set-up: method as in Trieu et al., 2014; details: ref Trieu et al., 2014; cited from earlier work
[2] = tested on: human gastric cancer SGC-7901 cell line; assay: MTT antiproliferative assay, SGC-7901; format: cell-based; details: 24 h, 1.0-100.0 μM, means ± SEM (n=3)
Procedure: (§1) The human colon cancer SW1116 cell line, the human hepatocellular carcinoma SMMC-7721 cell line, the human gastric cancer SGC-7901 cell line, and the human hepatocellular carcinoma HepG2 cell line were kindly provided by Xiao-li Xu from the Cancer Center, Fudan University. The human embryonic kidney 293T (HEK293T) cell line was kindly donated by Professor You-hua Xie from Fudan University. These human cancer cell lines were cultured in DMEM medium or RPMI-1640 medium, whereas the HEK293T cell line was cultured in MEM medium. All of the cell lines were supplemented with 10% FBS, penicillin (100 U/ml), and streptomycin ([…]) under a humidified atmosphere of 5% CO2 at 37°C using a CO2 incubator (SANYO, Osaka, Japan). Cell count was assessed using the trypan blue dye exclusion method.
(§2) The antiproliferative effects of the treatments were evaluated using the MTT assay. Cells were seeded at a density of 5×10^3 cells/well in 96-well plates (Corning, NY, USA). After attachment, the culture media were replaced with various concentrations of chemicals for 24 h. Then, the media in 96-well plates were incubated with MTT reagent (5 mg/ml) for 4 h at 37°C. Subsequently, the culture medium was discarded and 100 μl of DMSO was added to each well, to solubilize the formazan crystal formed. The absorbance of formazan crystal solution was determined at 570 nm on a Multiskan FC from Thermo Fisher Scientific Inc. (Waltham, MA, USA).

[3] = tested on: human hepatocellular carcinoma SMMC-7721 cell line; assay: MTT antiproliferative assay, SMMC-7721; format: cell-based; details: for IC50: Homo sapiens, SMMC-7721, means ± SEM (n=3)
Procedure: as §1, §2

[4] = tested on: human colon cancer SW1116 cell line; assay: MTT antiproliferative assay, SW1116; format: cell-based; details: for IC50: Homo sapiens, SW 1116, means ± SEM (n=3); for cell viability of SW1116 cells compared with normal group (0 μM): 30 μM, p < 0.01
Procedure: as §1, §2

[5] = tested on: human hepatocellular carcinoma HepG2 cell line; assay: MTT antiproliferative assay, HepG2; format: cell-based; details: 24 h, 1.0-100.0 μM, means ± SEM (n=3)
Procedure: as §1, §2

[6] = tested on: human embryonic kidney 293T (HEK293T) cell line; assay: MTT cytotoxicity against normal cell line HEK293T; format: cell-based; details: 24 h; for IC50: Homo sapiens, HEK-293T, means ± SEM (n=3)
Procedure: as §1, §2

SW1116 cells = assay: Annexin V-FITC/PI double staining by flow cytometry; format: cell-based, human; details: 36 h
Procedure: The growing cells were incubated in 24-well microplates (Corning, NY, USA) for 24 h. The cells were then treated with various concentrations of leiocarpin E-7′-monoacetate or taxol in humidified air with 5% CO2 at 37°C. After 36 h of incubation, the culture medium was discarded, and the cells were collected. For the apoptosis analysis, cells were suspended with 1×binding buffer (1×10^6 cells/ml) and then labeled with annexin V-FITC/PI, as per the manufacturer's instructions (Keygentec, Nanjing, Jiangsu, China). The analysis of the samples was performed by flow cytometry (Becton-Dickinson Bioscience, San Jose, CA, USA), and the acquired data was analyzed by the CellQuest software (Becton-Dickinson Bioscience, San Jose, CA, USA).

[7] = tested on: caspase-3, -8 and -9 in SW1116 cells; assay: Caspase activity assay in cell lysates; format: cell-based, human; details: 8 h
Procedure: To evaluate the activity of caspases, cell lysates were prepared after their respective designated treatments. The incubation of the growing cells was carried out in 24-well microplates (Corning, NY, USA) for 24 h. The cells were then treated with different concentrations of leiocarpin E-7′-monoacetate under humidified air with 5% CO2 at 37°C. After 8 h of incubation, the culture medium was discarded, the cells collected and washed twice with PBS. The mixture was then centrifuged at 2,000 rpm for 5 min. The PBS supernatant was discarded and the cells (concentration, 5×10^6 cells) were collected. To these cells, ice-cold lysis buffer (150~200 μl) was added. The mixture was placed on ice for 30 min, and then centrifuged (10,000 rpm, 1 min) at 4°C. The supernatant, containing lysed protein, was carefully aspirated and transferred to a new tube. The protein concentration was then measured in 2 μl of the supernatant using the Bradford method. The caspase assays were then performed in 96-well microtiter plates (Keygentec, Nanjing, Jiangsu, China) by incubating 10 μl of protein cell lysate per sample in 80 μl of reaction buffer (1% NP-40, 20 mM Tris-HCl (pH 7.5), 137 mM NaCl, and 10% glycerol) containing 10 μl of caspase substrate (2 mM). Lysates were incubated at 37°C for 4 h. Measuremet was done at 405 nm on a Multiskan FC from Thermo Fisher Scientific Inc. (Waltham, MA, USA). The detailed analysis procedure is described in the manufacturer's protocol (Keygentec, Nanjing, Jiangsu, China).

[8] = MTT, 24 h, 1.0-100.0 μM, read-out: IC50 SMMC-7721
[9] = MTT, 24 h, 1.0-100.0 μM, read-out: IC50 SW1116
[10] = 1.0-100.0 μM, read-out: IC50 HEK293T

Compound	IC50 [2]	IC50 [3, 8]	IC50 [4, 9]	IC50 [5]	IC50 [6, 10]	cell viability of SW1116 cells compared with normal group (0 μM) ([4]; 24 h)	other results
CC(=O)OC1C(c2ccccc2)OC2C=CC(=O)OC21 (centres unmarked) [7-acetylaltholactone]	–	–	–	–	–	–	IC50 [1]: 13.1 µM; IC50 (HepG2 (liver cancer)): 23.7 µM; IC50 (MCF7 (breast carcinoma)): 60.2 µM
COc1cc([C@@H]2c3cc4c(cc3[C@@H](O[C@@H]3O[C@@H]5CO[C@@H](C)O[C@H]5[C@H](O)[C@H]3O)[C@H]3COC(=O)[C@H]23)OCO4)cc(OC)c1O [VP-16, Etoposide, reference compound]	> 100 µM	> 100 µM	41.9 ± 0.98 µM	> 100 µM	> 100 µM	–	–
O=C1C=CC[C@H]([C@@H](O)[C@H]2O[C@H]([C@H]3CC=CC(=O)O3)[C@@H](c3ccccc3)c3ccccc32)O1 [Leiocarpin E, (R)-6-((R)-hydroxy((1S,3S,4S)-3-((R)-6-oxo-3,6-dihydro-2H-pyran-2-yl)-4-phenylisochroman-1-yl)methyl)-5,6-dihydro-2H-pyran-2-one]	> 100 µM	> 100 µM	15.1 ± 1.87 µM	> 100 µM	> 100 µM	significantly less	–
CC(=O)O[C@H]1C=CC(=O)O[C@H]1[C@H]1O[C@@H]1c1ccccc1 [Cheliensisin A, (2R,3S)-6-oxo-2-((2S,3R)-3-phenyloxiran-2-yl)-3,6-dihydro-2H-pyran-3-yl acetate]	> 100 µM	> 100 µM	93.18 ± 0.78 µM	> 100 µM	> 100 µM	–	IC50 ([3]; pristine compound, MTT, 24 h, 25.0-200.0 μM, read-out: IC50 SMMC-7721 Compound): 111 ± 2.41 µM; IC50 reduced by complexation with HP-β-CD, SMMC-7721 ([3]; complex vs pristine compound): 58%; IC50 ([4]; pristine compound, MTT, 24 h, 25.0-200.0 μM, read-out: IC50 SW1116 Compound): 93.18 ± 0.78 µM; IC50 reduced by complexation with HP-β-CD, SW1116 ([4]; complex vs pristine compound): 45%; IC50 ([6]; pristine compound, 25.0-200.0 μM, read-out: IC50 HEK293T Compound): > 200 µM
CC(=O)OC(C1CC=CC(=O)O1)C1OC(C2CC=CC(=O)O2)C(c2ccccc2)c2ccccc21 (centres unmarked) [Leiocarpin E-7′-monoacetate, leiocarpin E-7′-monoacetate]	45 ± 4.27 µM	61.7 ± 10.1 µM	6.73 ± 0.89 µM	50.1 ± 3.25 µM	> 100 µM	significantly less	early apoptosis rate (Q4) (SW1116 cells; SW1116, 3 μM): 2.6%; early apoptosis rate (Q4) (SW1116 cells; SW1116, 10 μM): 21.8%; early apoptosis rate (Q4) (SW1116 cells; SW1116, 30 μM): 55.2%; ratio of ODsample to ODnegative (caspase activity) ([7]; SW1116, 3 μM): ≤ 1; ratio of ODsample to ODnegative (caspase activity) ([7]; SW1116, 10 μM): greater than 1; ratio of ODsample to ODnegative (caspase activity) ([7]; SW1116, 30 μM): greater than 1
O=C1C=CC[C@H]([C@@H](O)[C@H](Oc2cc(O)c3c(c2)O[C@H](c2ccccc2)CC3=O)c2ccccc2)O1 [Leiocarpin B, (S)-5-hydroxy-7-((1R,2R)-2-hydroxy-2-((R)-6-oxo-3,6-dihydro-2H-pyran-2-yl)-1-phenylethoxy)-2-phenylchroman-4-one]	18.2 ± 0.88 µM	15.5 ± 1.11 µM	17.5 ± 0.69 µM	19.3 ± 1.42 µM	> 100 µM	significantly less	–
hydroxypropyl-β-cyclodextrin [HP-β-CD]	–	–	–	–	–	–	inhibition of growth, SMMC-7721 ([3]; MTT, 24 h, 25.0-200.0 μM): did not show any inhibition; also recorded: no inhibitory effect; inhibition of growth, SW1116 ([4]; MTT, 24 h, 25.0-200.0 μM): did not show any inhibition; also recorded: no inhibitory effect; inhibitory activity against HEK293T ([6]; 25.0-200.0 μM): did not show any inhibitory activity
O=C1C=CC[C@H]([C@H](O)[C@H](O)c2ccccc2)O1 [Goniodiol, (R)-6-((1R,2R)-1,2-dihydroxy-2-phenylethyl)-5,6-dihydro-2H-pyran-2-one]	> 100 µM	> 100 µM	80 ± 4.16 µM	> 100 µM	> 100 µM	–	–
